According to patent US20110280806A1, “DYE CONJUGATE IMAGING AGENTS” (priority 2008, published 2011):

Assay: Absorbance of Dye A vs cyanine dye Cy7 (diode array spectrophotometer)
Assay type: physicochemical
Details: 2.5 μM solution, DMSO diluted in PBS
Description: (a) Absorbance and fluorescence of Dye A vs Cyanine Dye Cy7.
0.1 to 0.2 mg vials of the dyes were dissolved initially in 100 μl DMSO and then diluted in PBS to the specified concentrations. Absorbance measurements were performed on 2.5 μM solutions, with a HP 8452A Diode array spectrophotometer. Fluorescence measurements were performed on 250 nM solutions, with a Varian Cary Eclipse Fluorescence Spectrophotometer at standardised instrument settings (600V PMT setting).

Row | measured absorbance equates to (molar extinction) (at 748 nm) | measured absorbance equates to (molar extinction) (at 746 nm) | Compound
1 | 250,000 /M/cm |  | CCN1C(=CC=CC=CC=CC2=[N+](CCCCCC(=O)O)c3ccc(S(=O)(=O)O)cc3C2(C)C)C(C)(C)c2cc(S(=O)(=O)[O-])ccc21 [Cy7]
2 |  | 260,000 /M/cm | CN1C2=C/C(=C/C=C/C3=CC4=[N+](C)c5ccccc5C4(C)C(C)(C)C3)CC(C)(C)C2(C)c2ccccc21 (centres unmarked) [Dye A, 4,4,4a,9-Tetramethyl-2-(3-(1E-4,4,4a,9-tetramethyl-4,4a-dihydro-3H-carbazol-2-ylidenyl)prop-1-enyl)-4,4a-dihydro-3H-carbazolium iodide]
